The source of these data is patent US20130216614A1, “IMMUNOGENIC COMPOSITIONS AND METHODS FOR TREATING NUEROLOGIC DISORDERS” (Glaxosmithkline Biologicals S.A., priority 2010, published 2013).

The subject of this experiment is monomeric Aβ. Nature of the experiment: Immunoblot of monomeric Aβ in brain protein fractions. To be noted: anti Aβ1-16 antibody, vs PBS. In kind it is in vivo, mice. The method, then: Proteins from hemi-forebrains were extracted using a modified method of the procedure published by Lesné et al (Lesne et al., 2006). All manipulations were done on ice to minimize protein degradation. One hemi-forebrain was placed in a 1 ml syringe with a 20 G needle. 500 l of buffer A (50 mM Tris-HCl pH 7.6, 0.01% NP-40, 150 mM NaCl, 2 mM EDTA, 0.1% SDS, 1 mM phenylmethylsulfonyl fluoride (PMSF), protease inhibitor cocktail) were added and 10 up and down were made to homogenize the tissue, followed by a 5 minutes centrifugation at 3 000 RPM at 4° C. The supernatant (extracellular proteins enriched fraction) was then collected and frozen at −80° C. […] Protein concentration of each fraction was determined using the Quantipro BCA assay kit (Sigma) according to the manufacturer protocol.
For total Aβ detection, 10-30 μg of extracellular, cytoplasmic and membrane protein fractions were separated on a precast 10-20% SDS polyacrylamide Tris-Tricine gel (Bio-Rad). Separated proteins were then transferred onto polyvinylidene fluoride (PVDF) membranes (PerkinElmer Life and Analytical Sciences) and detected by Western blotting. […]
Quantification was done by determining integrative density of the bands using a gel imaging system (scanner Agfa Arcus II; NIHImage J software version 1.32j) and background values were removed. […] Results are expressed as mean±SEM. […]
Background: A western blot detects proteins with antibodies after separation by electrophoresis.

Turning to “3-O-desacyl-4′-monophosphoryl lipid A [3D MPL]”, the “monomeric Aβ in extra-cellular enriched fractions from brains” value is “reduction”.
